Experimental data as given in patent US12227513B2, “Salt and crystalline form of furopyrimidine compound and pharmaceutical use thereof” (TIUMBIO CO., LTD., priority 2018, dated 2025).
Where a name gives a salt, the structure may show the parent alone.

Assays:
Type in all cases: physicochemical
[1] = Evaluation of stability of crystal form (PXRD after drying in vacuo at 50° C.); details: after being dried in vacuo at 50° C.
Procedure: The solid product (crystalline form A) obtained in Example 1 was subjected to powder X-ray diffraction (PXRD). The results are shown in FIG. 1 and Table 8 below. • Instrument: Maker Bruker AXS, D8 FOCUS • Conditions: 40 kV, 30 mA, 2θ/θ scan range of 3° to 50°
The solid product (crystalline form A) obtained in Example 1 was dried in vacuo at 50° C., and then subjected to powder X-ray diffraction as described above. The results are illustrated in FIG. 4.
On the other hand, using 1,4-dioxane as a solvent, a solid product (crystalline form B) was obtained in a similar manner as in Example 1, and subjected to powder X-ray diffraction as described above.

[2] = Water solubility (distilled water at 25° C., HPLC); details: supersaturated solution
Procedure: The water solubility was obtained as follows. Each of the free base and the dibesylate salt was dissolved in distilled water at 25° C. to make it supersaturated. Then, the solution was taken and diluted 20-fold with a diluent for dissolution. Then, the resultant was subjected to high-performance liquid chromatography (HPLC). In the resulting data, the dissolved amount was calculated from a peak area of the main compound.

[3] = Chemical purity after storage for 3 months at 40° C. and 75% relative humidity (HPLC)
Procedure: (§1) Each of the salts (dibesylate salt, dihydrochloride salt, sodium salt, potassium salt) prepared in the above examples was left to stand at 80° C. for 20 hours, and then an amount of change in related substances was measured. In addition, each of the salts was left to stand at 80° C. for 21 days, and then a residual amount of the main compound (compound of Formula 1) was measured. For measurement of the related substances and the main compound, samples were taken before and after exposure to 80° C., dissolved in a diluted solution at a concentration of 1 mg/mL, and then subjected to high-performance liquid chromatography (HPLC). From the resulting data, an increase in related substances was calculated by measuring a peak area of lactam-based related substances relative to a peak area of the main compound. In addition, for comparison, the same test was also carried out for the free base of the compound of Formula 1.
In addition, in a similar manner, the dibesylate salt prepared in the above example was stored for 3 months (at 40° C. and 75% relative humidity), and amounts of change in lactam-based related substances and main compound were measured.

[4] = Hygroscopicity (weight increase after 1 week at 25° C. and 60% or 90% relative humidity); details: weight increase relative to the initial weight
Procedure: Each of the salts (dibesylate salt, dihydrochloride salt, dioxalate salt, sodium salt, potassium salt) prepared in the above examples was left to stand at 25° C. and 60% or 90% relative humidity for 1 week, and a hygroscopicity thereof was measured. Here, the hygroscopicity was measured as a percentage of weight increase, which was measured after the hygroscopicity test, relative to the initial weight.

[5] = Chemical purity after standing at 80° C. (HPLC; lactam-based related substances and main compound); details: for Increase in related substances: After 20 hours at 80° C., peak area of lactam-based related substances relative to main compound (HPLC); for Residual amount of main compound: After 21 days at 80° C., HPLC
Procedure: as §1

[6] = Stability of drug product (oral capsule, 50° C. and 80% humidity for 3 weeks, HPLC); details: 50° C. and 80% relative humidity for 3 weeks
Procedure: Using each of the salts (dibesylate salt, dihydrochloride salt, sodium salt, potassium salt) prepared in the above examples, a drug product was prepared in the form of an oral capsule with the excipient composition as shown in Table 6 below. The drug product was left to stand at 50° C. and 80% humidity for 3 weeks, and then an amount of change in related substances was measured. For measurement of related substances, the contents were separated from the capsule, and then all of them were placed in a diluted solution so that the active ingredient was brought to a concentration of 1 mg/mL. Shaking was performed for 5 minutes. The supernatant was taken and filtered. The filtrate was taken and subjected to high-performance liquid chromatography (HPLC).
From the resulting data, percentages of a peak area of the main compound (active ingredient) and a peak area of the lactam-based related substances were measured. In addition, for comparison, the same test was also carried out for the free base of the compound of Formula 1.

[7] = Physical state of the product as obtained (foam, moistening); details: observation in words
Description: First, the compound of Formula 1 was not solidified, which posed great difficulty in controlling a residual solvent.

[8] = After 3 months at 40° C. and 75% relative humidity

Row | Structure (SMILES) | Hygroscopicity ([4]; 60% RH) | Hygroscopicity ([4]; 90% RH) | Increase in related substances [5] | Residual amount of main compound [5] | other results
1 | O=C(O)CCCN[C@@H](Cn1c(=O)c2c(n(Cc3c(F)cccc3C(F)(F)F)c1=O)COC21CCN(Cc2ccc(C(F)(F)F)o2)CC1)c1ccccc1 [Dibesylate salt] | 0.06 wt % | 0.9 wt % | 0.0% | 99.6% | Stability of crystal structure (PXRD) ([1]; listed as crystalline form A): maintained the same crystal structure as its initial one; Water solubility (25° C.) [2]: 25.77 mg/mL; Water solubility (25° C.) ([2]; listed as dibesylate salt): greatly improved water solubility; Chemical purity: Related substances [3, 8]: 0.03%; Chemical purity: main compound (Dibesylate salt) [3, 8]: 99.6%; Chemical purity: Related substances ([3]; Initial): 0.02%; Chemical purity: main compound (Dibesylate salt) ([3]; Initial): 99.7%; Hygroscopicity ([4]; 90% RH, listed as dibesylate salt): very low hygroscopicity; Increase in related substances ([5]; listed as dibesylate salt): did not generate any related substances; Stability of drug product (in words) [6]: very good stability
2 | O=C(O)CCCN[C@@H](Cn1c(=O)c2c(n(Cc3c(F)cccc3C(F)(F)F)c1=O)COC21CCN(Cc2ccc(C(F)(F)F)o2)CC1)c1ccccc1 [Potassium salt] | 9.2 wt % | 38 wt % | 0.4% | 72.6% | –
3 | O=C(O)CCCN[C@@H](Cn1c(=O)c2c(n(Cc3c(F)cccc3C(F)(F)F)c1=O)COC21CCN(Cc2ccc(C(F)(F)F)o2)CC1)c1ccccc1 [crystalline form B] | – | – | – | – | Stability of crystal structure (PXRD) [1]: did not maintain some of its initial crystal structure
4 | O=C(O)CCCN[C@@H](Cn1c(=O)c2c(n(Cc3c(F)cccc3C(F)(F)F)c1=O)COC21CCN(Cc2ccc(C(F)(F)F)o2)CC1)c1ccccc1 [Dihydrochloride salt] | 2.1 wt % | 16 wt % | 0.9% | 69.4% | –
5 | O=C(O)CCCN[C@@H](Cn1c(=O)c2c(n(Cc3c(F)cccc3C(F)(F)F)c1=O)COC21CCN(Cc2ccc(C(F)(F)F)o2)CC1)c1ccccc1 [Sodium salt] | 8.7 wt % | 35 wt % | 0.6% | 77.0% | –
6 | O=C(O)CCCN[C@@H](Cn1c(=O)c2c(n(Cc3c(F)cccc3C(F)(F)F)c1=O)COC21CCN(Cc2ccc(C(F)(F)F)o2)CC1)c1ccccc1 [diphosphate salt, reference compound] | – | – | – | – | Moistening of the product obtained in the form of a foam [7]: easily moistened and turned into a sticky oil form
7 | O=C(O)CCCN[C@@H](Cn1c(=O)c2c(n(Cc3c(F)cccc3C(F)(F)F)c1=O)COC21CCN(Cc2ccc(C(F)(F)F)o2)CC1)c1ccccc1 [Dioxalate salt] | 3.5 wt % | 19 wt % | – | – | –
8 | O=C(O)CCCN[C@@H](Cn1c(=O)c2c(n(Cc3c(F)cccc3C(F)(F)F)c1=O)COC21CCN(Cc2ccc(C(F)(F)F)o2)CC1)c1ccccc1 [Free base, (R)-4-((2-(1-(2-fluoro-6-(trifluoromethyl)benzyl)-2,4-dioxo-1′-((5-(trifluoromethyl)furan-2-yl)methyl)-1H-spiro[furo[3,4-d]pyrimidine-5,4′-piperidine]-3 (2H,4H,7H)-yl)-1-phenylethyl)amino)butanoic acid] | – | – | 79.0% | 1.4% | Water solubility (25° C.) [2]: 0.19 mg/mL; Water solubility (25° C.) ([2]; listed as free base): low water solubility; Moistening of the product obtained in the form of a foam [7]: easily moistened and turned into a sticky oil form; Increase in related substances ([5]; listed as free base): about 79%
